In patent US20140329833A1, “LYSINE DEMETHYLASE INHIBITORS FOR INFLAMMATORY DISEASES OR CONDITIONS” (ORYZON GENOMICS, S.A, priority 2011, published 2014):

Assays:
[1] = system: dimethylated H3K4 in SH-SY5Y cells; assay: Western blot for H3K4 methylation in SH-SY5Y cells; format: cell-based; settings: Dual-1 100 μM vs parnate 250 μM
Excerpt: FIG. 3 Compound Dual-1 Increases Histone Methylation.
B-actin was used as a loading control.

[2] = target: T1, LSD1 (Homo sapiens, UniProt O60341); assay: LSD1 demethylase inhibition assay (Amplex Red peroxide/peroxidase-coupled); format: biochemical; parameters: purchased BPS Bioscience Inc; settings: from the IC50 values for LSD1, MAO-A and MAO-B
Description: Compounds for use in the methods of the invention can be identified by their ability to inhibit LSD1. The ability of compounds to inhibit LSD1 can be tested as follows. Human recombinant LSD1 protein was purchased from BPS Bioscience Inc. In order to monitor LSD1 enzymatic activity and/or its inhibition rate by the LSD1 inhibitor(s) of interest, di-methylated H3-K4 peptide (Millipore) was chosen as a substrate.
Within the experiment, each concentration of inhibitor was tested in duplicate. […] The enzymatic reactions were set up in a 50 mM sodium phosphate, pH 7.4 buffer. At the end of the incubation, Amplex® Red reagent and horseradish peroxidase (HPR) solution were added to the reaction according to the recommendations provided by the supplier (Invitrogen), and left to incubate for 30 extra minutes at room temperature in the dark. A 1 μM H2O2 solution was used as a control of the kit efficiency. […] Arbitrary units were used to measure level of H2O2 produced in the absence and/or in the presence of inhibitor.
The maximum demethylase activity of LSD1 was obtained in the absence of inhibitor and corrected for background fluorescence in the absence of LSD1. The Ki (IC50) of each inhibitor was estimated at half of the maximum activity.

[3] = target: T1, LSD1; settings: Ueda et al. (2009) J. Am. Chem. Soc. 131(48):17536-17537; cited from earlier work

selectivity class (LSD1 vs MAO-A and MAO-B) [2]: dual LSD1/MAO-B selective inhibitors
SMILES: NC(=O)CN[C@H]1C[C@@H]1c1ccc(OCc2ccccc2)cc1 (racemic) [Compound 1]
potency at increasing global H3K4 methylation levels compared to tranylcypromine [1]: ten-fold or more potent | IC50 [3]: 2500 nM
